Measurements reported in ChEMBL document CHEMBL1201862, “PubChem BioAssay data set” (2004).
The source made the active and inactive calls.

Tests used:
[1] = Luminescence Cell-Based Dose Response HTS to Identify Activators of Luciferase Translation or Activity in H4 […] Cells. [Related pubchem assays: 1829 (Project Summary), 1814 (Primary HTS)]; assay type: functional
[2] = tested on: H4; experiment: Luminescence Cell-Based Dose Response HTS to Identify Activators of 5'UTR Stem-Loop Driven Prion Protein mRNA Translation in H4 Neuroglioblastoma Cells. [Related pubchem assays: 1829 (Project Summary), 1814 (Primary HTS)]; assay type: functional; details: Homo sapiens
[3] = Luminescence Cell-Based Dose Confirmation HTS to Identify Activators of 5'UTR Stem-Loop Driven Alpha-Synuclein mRNA Translation in H4 Neuroglioblastoma Cells. [Related pubchem assays: 1829 (Project Summary), 1814 (Primary HTS)]; assay type: functional
[4] = target: T1, Heat shock factor protein 1 (Mus musculus, UniProt P38532); experiment: decrease of HSF1-responsive luciferase luminescence – cell-based, NIH3T3, dose retest, confirmation (AID 2382); assay type: functional;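 also: NIH3T3 fibroblasts with HSF1-driven luciferase reporter stressed by proteasome inhibitor MG132; luminescence from HSF1-driven luciferase expression after 8 hours of MG132 stress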
T1 sequence (P38532 whole entry): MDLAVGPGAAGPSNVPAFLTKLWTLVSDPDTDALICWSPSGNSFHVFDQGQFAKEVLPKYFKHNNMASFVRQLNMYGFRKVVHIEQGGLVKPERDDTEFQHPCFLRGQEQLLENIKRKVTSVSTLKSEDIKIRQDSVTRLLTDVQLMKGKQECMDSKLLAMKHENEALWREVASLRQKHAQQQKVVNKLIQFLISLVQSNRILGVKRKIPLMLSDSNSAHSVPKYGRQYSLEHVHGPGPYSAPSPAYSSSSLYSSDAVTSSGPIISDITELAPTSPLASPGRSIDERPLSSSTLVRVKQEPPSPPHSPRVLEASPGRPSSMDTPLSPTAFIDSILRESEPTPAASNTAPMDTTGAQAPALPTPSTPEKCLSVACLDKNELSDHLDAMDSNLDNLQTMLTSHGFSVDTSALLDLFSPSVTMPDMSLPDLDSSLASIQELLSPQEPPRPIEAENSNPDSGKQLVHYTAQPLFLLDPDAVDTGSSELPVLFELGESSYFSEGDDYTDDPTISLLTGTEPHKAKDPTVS

[5] = target: Cytochrome P450 2D6 (Homo sapiens, UniProt P10635);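 also: CYP2D6 member of a cytochrome P450 panel assay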
Sequence of Cytochrome P450 2D6 (P10635 whole entry): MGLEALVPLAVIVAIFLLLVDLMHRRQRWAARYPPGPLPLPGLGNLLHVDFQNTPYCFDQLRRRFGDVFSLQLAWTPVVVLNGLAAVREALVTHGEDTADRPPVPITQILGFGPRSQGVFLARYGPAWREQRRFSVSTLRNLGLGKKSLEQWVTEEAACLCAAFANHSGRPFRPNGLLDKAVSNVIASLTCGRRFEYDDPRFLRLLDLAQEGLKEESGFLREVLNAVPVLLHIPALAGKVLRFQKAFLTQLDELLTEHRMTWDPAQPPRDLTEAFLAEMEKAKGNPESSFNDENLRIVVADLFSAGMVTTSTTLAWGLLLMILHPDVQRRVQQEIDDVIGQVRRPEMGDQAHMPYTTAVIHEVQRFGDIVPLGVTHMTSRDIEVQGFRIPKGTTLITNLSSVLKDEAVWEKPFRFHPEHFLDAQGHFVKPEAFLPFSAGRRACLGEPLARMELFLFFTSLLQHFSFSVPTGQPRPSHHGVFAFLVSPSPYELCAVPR

[6] = target: Cytochrome P450 3A4 (Homo sapiens, UniProt P08684);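 also: CYP3A4 tested as one member of a cytochrome P450 panel screen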
Sequence of Cytochrome P450 3A4 (P08684 whole entry): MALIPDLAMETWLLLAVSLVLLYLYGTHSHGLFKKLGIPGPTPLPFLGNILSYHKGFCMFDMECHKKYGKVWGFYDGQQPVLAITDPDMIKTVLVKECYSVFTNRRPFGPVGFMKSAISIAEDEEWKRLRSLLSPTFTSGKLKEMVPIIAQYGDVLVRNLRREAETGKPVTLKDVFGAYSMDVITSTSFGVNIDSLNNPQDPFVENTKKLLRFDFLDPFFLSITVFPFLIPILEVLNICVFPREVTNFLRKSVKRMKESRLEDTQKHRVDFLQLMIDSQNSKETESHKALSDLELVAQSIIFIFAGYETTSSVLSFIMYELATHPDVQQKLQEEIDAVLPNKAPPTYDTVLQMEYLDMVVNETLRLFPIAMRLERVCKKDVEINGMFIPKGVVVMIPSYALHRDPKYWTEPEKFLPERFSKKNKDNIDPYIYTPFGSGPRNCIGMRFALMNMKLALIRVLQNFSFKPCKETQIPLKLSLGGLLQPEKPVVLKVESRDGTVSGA

[7] = fluconazole-exposed Candida albicans growth modulators – fluorescence, retest, confirmation (AID 2467); assay type: functional, cell-based
[8] = NIH-3T3 fibroblast cytotoxicity, dose response, cytotoxicity control, cell-based, fluorescence, Alamar Blue, secondary assay (AID 2327); assay type: functional;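 also: NIH-3T3 mouse fibroblasts cultured with fluconazole at 8 µg/mL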
[9] = tested on: Streptococcus sp. 'group A'; experiment: Streptococcus pyogenes SK(-)GAS viability under kanamycin – luminescence, BacTiterGlo, confirmation, counter-screen for streptokinase expression inhibitor project, dose response (AID 1900); assay type: functional, organism-based
[10] = target: T2, Streptokinase A (Streptococcus pyogenes serotype M1, UniProt P10520); experiment: viability-normalized secreted streptokinase activity reduction – plasminogen activation absorbance, OD405, dose response (AID 1914); assay type: functional, Streptococcus pyogenes M1 GAS;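 also: secreted streptokinase activity via plasminogen activation per viability signal from cell pellet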
T2 sequence (P10520 whole entry): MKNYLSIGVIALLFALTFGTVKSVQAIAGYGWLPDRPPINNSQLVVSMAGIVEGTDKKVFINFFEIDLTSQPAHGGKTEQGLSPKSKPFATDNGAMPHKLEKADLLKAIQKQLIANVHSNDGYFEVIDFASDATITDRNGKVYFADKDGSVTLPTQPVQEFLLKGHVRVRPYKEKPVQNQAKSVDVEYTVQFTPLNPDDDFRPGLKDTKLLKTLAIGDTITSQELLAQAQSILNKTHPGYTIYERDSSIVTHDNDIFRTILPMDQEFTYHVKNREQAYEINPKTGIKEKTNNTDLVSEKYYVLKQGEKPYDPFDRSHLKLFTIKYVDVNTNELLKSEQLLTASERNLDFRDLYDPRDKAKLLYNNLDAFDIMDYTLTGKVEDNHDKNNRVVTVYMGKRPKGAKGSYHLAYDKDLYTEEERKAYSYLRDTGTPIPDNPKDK

[11] = tested on: Streptococcus; experiment: GAS UMAA2166 growth inhibition – luminescence, BacTiterGlo, counter-screen for streptokinase expression inhibitor project, dose response (AID 1915); assay type: functional, organism-based;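 also: potency for reduction of bacterial viability or growth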
[12] = target: Cytochrome P450 2C9 (Homo sapiens, UniProt P11712)
Sequence of Cytochrome P450 2C9 (P11712 whole entry): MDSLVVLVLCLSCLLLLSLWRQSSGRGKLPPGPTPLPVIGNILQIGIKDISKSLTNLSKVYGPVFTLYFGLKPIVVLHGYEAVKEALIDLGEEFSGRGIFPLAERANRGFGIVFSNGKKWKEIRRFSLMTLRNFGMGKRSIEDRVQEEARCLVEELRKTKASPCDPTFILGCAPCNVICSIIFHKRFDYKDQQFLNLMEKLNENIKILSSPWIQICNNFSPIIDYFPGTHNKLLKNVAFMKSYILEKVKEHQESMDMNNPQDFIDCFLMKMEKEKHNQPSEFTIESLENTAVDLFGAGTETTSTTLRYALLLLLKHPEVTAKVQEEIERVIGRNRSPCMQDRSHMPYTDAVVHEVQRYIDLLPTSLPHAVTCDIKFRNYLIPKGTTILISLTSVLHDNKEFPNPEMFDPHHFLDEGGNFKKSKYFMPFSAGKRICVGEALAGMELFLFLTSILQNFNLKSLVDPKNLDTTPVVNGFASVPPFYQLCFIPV

[13] = target: T3, Cytochrome P450 1A2 (Homo sapiens, UniProt P05177);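 also: PubChem cytochrome P450 panel assay, CYP1A2 panel member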
T3 sequence (P05177 whole entry): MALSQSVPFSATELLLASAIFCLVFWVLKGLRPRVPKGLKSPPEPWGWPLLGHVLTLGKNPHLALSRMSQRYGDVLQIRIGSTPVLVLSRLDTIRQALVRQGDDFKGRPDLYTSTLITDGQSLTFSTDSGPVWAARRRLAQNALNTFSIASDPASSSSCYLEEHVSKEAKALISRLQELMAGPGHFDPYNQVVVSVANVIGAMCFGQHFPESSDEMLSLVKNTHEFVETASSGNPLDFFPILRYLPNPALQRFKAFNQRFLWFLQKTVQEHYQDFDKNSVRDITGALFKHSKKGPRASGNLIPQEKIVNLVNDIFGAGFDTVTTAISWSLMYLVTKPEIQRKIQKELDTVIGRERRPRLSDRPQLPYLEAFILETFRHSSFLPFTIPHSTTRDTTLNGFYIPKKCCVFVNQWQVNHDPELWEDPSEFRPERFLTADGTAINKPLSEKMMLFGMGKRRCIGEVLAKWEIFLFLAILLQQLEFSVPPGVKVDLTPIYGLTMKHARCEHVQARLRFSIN

[14] = target: Cytochrome P450 2C19 (Homo sapiens, UniProt P33261); experiment: Cytochrome panel assay with activity outcomes. Panel member name: p450-cyp2c19 Compounds with AC50 equal or less than 10 uM are considered active; assay type: functional
Sequence of Cytochrome P450 2C19 (P33261 whole entry): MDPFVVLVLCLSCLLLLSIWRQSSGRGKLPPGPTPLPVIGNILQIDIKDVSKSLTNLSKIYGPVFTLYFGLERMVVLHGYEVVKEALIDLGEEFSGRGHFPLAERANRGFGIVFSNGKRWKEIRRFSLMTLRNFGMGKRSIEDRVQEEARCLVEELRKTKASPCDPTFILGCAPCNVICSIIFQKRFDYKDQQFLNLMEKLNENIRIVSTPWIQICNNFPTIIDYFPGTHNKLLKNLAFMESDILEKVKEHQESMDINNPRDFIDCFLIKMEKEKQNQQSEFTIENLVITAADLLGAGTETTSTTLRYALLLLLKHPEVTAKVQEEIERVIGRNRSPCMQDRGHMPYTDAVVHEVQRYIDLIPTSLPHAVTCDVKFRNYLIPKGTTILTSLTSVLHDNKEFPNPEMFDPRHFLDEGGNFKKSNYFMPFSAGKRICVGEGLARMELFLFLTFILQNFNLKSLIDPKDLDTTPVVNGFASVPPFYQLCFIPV

[15] = Luminescence Cell-Based Dose Retest to Confirm Inhibitors of Cancer Stem Cells. [Related pubchem assays (depositor defined):AID2717, AID2721]; assay type: functional; details: Homo sapiens

In the case of `CCCCNC(=O)C1CCN(Cc2ccc(OCc3ccccc3)cc2)CC1`, the EC50 [1] is reported as 70.9 µM (active), the EC50 [2] is reported as 63.1 µM (active) and the EC50 [3] is reported as 18.6 µM (active).
In the case of `CCc1ccc(/C=C2\Oc3cc(OC(=O)N4CCOCC4)ccc3C2=O)cc1`, the EC50 [4] is reported as > 195 µM (not active).
For `CSc1cccc(NC(=O)Cn2cccc2)c1`, the AC50 [5] was 14.1 µM (inconclusive) and the AC50 [6] was 22.4 µM (inconclusive).
In the case of `O=C(NC1CCCCC1)C(c1ccc2ncccc2c1)N(Cc1ccc(F)cc1)C(=O)c1ccc2c(c1)OCCO2` (stereo not given), the EC50 [7] is reported as > 38 µM (not active) and the EC50 [8] is reported as > 150 µM (inconclusive).
For `Cc1ccc(S(=O)(=O)N(C)CC(=O)N2CC(C)OC(C)C2)cc1` (stereo not given), the EC50 [9] was > 150 µM (not active), the EC50 [10] was > 150 µM (not active) and the EC50 [11] was > 150 µM (not active).
For `CCNc1ncc2ncc(=O)n(CCc3ccccc3)c2n1`, the AC50 [5] was 25.1 µM (inconclusive), the AC50 [12] was 15.8 µM (inconclusive) and the AC50 [6] was 15.8 µM (inconclusive).
For `CC(=O)OC[C@@H]1O[C@H](CCO/N=C(\C)CCN2CCc3nc(-c4ccccc4)c(-c4ccccc4)cc3C2)C=C[C@@H]1OC(C)=O`, the AC50 [12] was 3.16 µM (inconclusive) and the AC50 [6] was 3.98 µM (inconclusive).
In the case of `CCC1(C)Cc2ccccc2-c2c1c(=O)n(Cc1ccccc1)c1nnnn21` (stereo not given), the EC50 [10] is reported as 4.04 µM (active) and the EC50 [11] is reported as > 150 µM (not active).
For `c1ccc2c(c1)CCN(c1nc3ccccc3n3cnnc13)C2`, the EC50 [1] was 26.4 µM (active), the EC50 [2] was 29.1 µM (active) and the EC50 [3] was 0.123 µM (active).
With `COc1cccc(NC(=O)C(=O)N2CCOCC2)c1` the EC50 [1] was 78.3 µM (active), the EC50 [2] was 24.3 µM (active) and the EC50 [3] was 4.35 µM (active).
With `COc1ccc(C(=O)Nc2cccc(-c3ccc(N4CCOCC4)nn3)c2)cc1` the EC50 [9] was > 150 µM (not active), the EC50 [10] was > 150 µM (not active) and the EC50 [11] was > 150 µM (not active).
In the case of `O=C(c1ccccc1)N1CCN(c2ncnc3c(-c4ccccc4)nsc23)CC1`, the EC50 [1] is reported as > 120 µM (not active), the EC50 [2] is reported as 17 µM (active) and the EC50 [3] is reported as 33.1 µM (active).
With `COC(=O)C(NC(=O)c1ccccc1)=C1C=C(C)OC(C)=C1` the AC50 [13] was 14.1 µM (inconclusive) and the AC50 [6] was 22.4 µM (inconclusive).
In the case of `COc1ccccc1-c1c[nH]nc1-c1ccc(OCc2ccc(F)cc2)cc1O`, the EC50 [9] is reported as 7.62 µM (active), the EC50 [10] is reported as 76.6 µM (active) and the EC50 [11] is reported as 24.5 µM (active).
In the case of `C/C(=N\O)c1ccc2[nH]ccc2c1`, the AC50 [14] is reported as 11.2 µM (inconclusive) and the AC50 [6] is reported as 22.4 µM (inconclusive).
With `CCOc1ccccc1N1CCN(CC(O)COC2CCCc3ccccc32)CC1` (stereo not given) the EC50 [7] was 1.02 µM (active) and the EC50 [8] was > 160 µM (inactive).
In the case of `Cc1ccc(-c2nn(-c3ccccc3)cc2/C=C2\SC(=S)N(CCCCCC(=O)O)C2=O)o1`, the EC50 [1] is reported as 16 µM (active), the EC50 [2] is reported as 13.9 µM (active) and the EC50 [3] is reported as 12.6 µM (active).
For `O=C(Nc1ccc(-c2csc(Nc3ccc(Cl)cc3)n2)cc1)c1cc([N+](=O)[O-])cc(C(F)(F)F)c1`, the AC50 [15] was 1.32 µM (active), the EC50 [9] was 8.5 µM (active) and the EC50 [10] was > 150 µM (not active). For the same molecule, the EC50 [11] was 7.28 µM (active).
In the case of `COc1ccc(NC(=O)N2CC[C@@]3(CCCN(C(=O)Oc4ccccc4)C3)C2)cc1`, the AC50 [14] is reported as 15.8 µM (inconclusive), the AC50 [12] is reported as 25.1 µM (inconclusive) and the AC50 [6] is reported as 39.8 µM (inconclusive).
For `Cc1noc(/C=C/N(C)C)c1S(=O)(=O)N1CCN(c2ccc(F)cc2)CC1`, the EC50 [4] was > 195 µM (not active).
For `O=C(Nc1cccc(F)c1)N1CC[C@@]2(CCCN(C(=O)c3cccc(F)c3)C2)C1`, the AC50 [13] was 12.6 µM (inconclusive) and the AC50 [6] was 15.8 µM (inconclusive).
In the case of `CCOC(=O)c1nnn(CC(=O)NC(=O)Nc2ccc(F)cc2)c1C(=O)OCC`, the EC50 [4] is reported as > 195 µM (not active).
In the case of `COc1ccc(/C=C/C(=O)NC(=S)NNC(=O)c2cc(OC)c(OC)c(OC)c2)cc1OC`, the EC50 [9] is reported as 3.3 µM (active), the EC50 [10] is reported as > 150 µM (not active) and the EC50 [11] is reported as 17.8 µM (active).
With `Cc1nn(-c2ccccc2)c(N2CCCCC2)c1/C=N/O` the AC50 [15] was 3.97 µM (active), the AC50 [12] was 7.08 µM (inconclusive) and the AC50 [6] was 14.1 µM (inconclusive).
For `CCOC(=O)c1ccc(Nc2ncccc2[N+](=O)[O-])cc1`, the EC50 [1] was 1.82 µM (active), the EC50 [2] was 0.801 µM (active) and the EC50 [3] was 0.12 µM (active).
In the case of `COc1ccc(NC(=O)c2cc3cccc(OC)c3o/c2=N\c2ccc(C(=O)O)cc2)cc1OC`, the EC50 [9] is reported as 2.38 µM (active), the EC50 [10] is reported as > 150 µM (not active) and the EC50 [11] is reported as 20.2 µM (active).
With `N#Cc1nc(-c2ccc(OCc3ccccc3)cc2)oc1NCCN1CCOCC1` the AC50 [6] was 3.98 µM (inconclusive).
With `CC1(C(=O)CSc2nc3ccccc3s2)CCC(=O)O1` (stereo not given) the AC50 [13] was 3.55 µM (inconclusive) and the AC50 [6] was 14.1 µM (inconclusive).
For `COCCn1c(=O)c(-c2ccccc2)nc2cnc(Oc3ccccc3)nc21`, the AC50 [6] was 31.6 µM (inconclusive).
With `Cc1occc1C(=O)Nc1nnc(C(F)(F)F)s1` the EC50 [7] was 1.95 µM (active) and the EC50 [8] was > 150 µM (inconclusive).
With `Cc1ccc(N(CC(=O)NC2CCCCC2)C(=O)CNC(=O)c2ccco2)c(C)c1` the EC50 [4] was > 195 µM (not active).
With `N#Cc1ccc(-c2nc3cc(Cl)ccc3c(=O)n2O)cc1` the EC50 [7] was 1.63 µM (active) and the EC50 [8] was > 160 µM (inconclusive).
For `O=C(NC(=S)Nc1ccc(Cl)cn1)C(c1ccccc1)c1ccccc1`, the EC50 [9] was 3.85 µM (active), the EC50 [10] was > 150 µM (not active) and the EC50 [11] was 6.57 µM (active).
With `CCCCn1c(N)nc2ccccc21` the EC50 [4] was > 195 µM (not active).
For `CCOc1ccc(N(CC(=O)NC2CCCCC2)C(=O)CCC(=O)Nc2nc(C)cs2)cc1`, the EC50 [4] was > 195 µM (not active).
For `CCOCCCNC(=O)c1cc(C)nn1-c1ccccc1`, the EC50 [4] was > 195 µM (not active).
For `N#Cc1cccc(NC(=O)N2CCCC3(CCN(C(=O)c4csnn4)CC3)C2)c1`, the AC50 [6] was 15.8 µM (inconclusive).
With `Cn1c(=O)c(CCc2ccccc2)nc2cnc(N3CCNCC3)nc21` the AC50 [12] was 25.1 µM (inconclusive) and the AC50 [6] was 0.0251 µM (inconclusive).
In the case of `Nc1nn2cc(-c3ccc(Br)cc3)nc2c2ccccc12`, the EC50 [7] is reported as 1.24 µM (active), the EC50 [1] is reported as 0.177 µM (active) and the EC50 [2] is reported as 2.38 µM (active). The EC50 [8] was 109 µM (active).
In the case of `CCOc1ccc2ccccc2c1CNc1nnnn1CC`, the EC50 [4] is reported as > 195 µM (not active).
With `NC(=O)c1ccsc1NC(=O)CCS(=O)(=O)c1ccccc1` the EC50 [7] was > 38 µM (not active) and the EC50 [8] was > 150 µM (inactive).
